Consider three compounds from ChEMBL document CHEMBL5653631, “A Potent and Selective ULK1 Inhibitor Suppresses Autophagy and Sensitizes Cancer Cells to Nutrient Stress” (iScience, 2018).

The term inhibition denotes the share of the control response that was lost under treatment.

Structures are written as SMILES.

For experiment [1], the target named is Casein kinase II subunit alpha (Homo sapiens) (UniProt P68400). Put plainly: Inhibition of human recombinant CK2a1 at 40 nM related to control ULK1.
Casein kinase II subunit alpha (Homo sapiens), sequence (P68400 whole entry, looked up): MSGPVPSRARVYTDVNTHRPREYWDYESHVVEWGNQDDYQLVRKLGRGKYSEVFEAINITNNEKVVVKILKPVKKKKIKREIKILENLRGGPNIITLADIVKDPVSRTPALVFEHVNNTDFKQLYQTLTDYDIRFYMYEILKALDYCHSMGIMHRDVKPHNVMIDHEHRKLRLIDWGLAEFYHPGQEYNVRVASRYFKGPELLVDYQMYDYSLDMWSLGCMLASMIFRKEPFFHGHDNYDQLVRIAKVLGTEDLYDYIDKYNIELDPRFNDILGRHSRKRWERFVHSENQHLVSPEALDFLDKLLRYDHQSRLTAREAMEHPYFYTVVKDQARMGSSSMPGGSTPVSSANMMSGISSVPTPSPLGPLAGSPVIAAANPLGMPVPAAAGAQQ
Experiment [2] has as its target Wee1-like protein kinase (Homo sapiens) (UniProt P30291). Put plainly: Inhibition of human recombinant Wee1 at 40 nM related to control ULK1.
The target in experiment [3] is Serine/threonine-protein kinase 24 (Homo sapiens) (UniProt Q9Y6E0). Nature of the experiment: Inhibition of human recombinant MST3 at 40 nM related to control ULK1.
Serine/threonine-protein kinase 24 (Homo sapiens), sequence (Q9Y6E0 whole entry, looked up): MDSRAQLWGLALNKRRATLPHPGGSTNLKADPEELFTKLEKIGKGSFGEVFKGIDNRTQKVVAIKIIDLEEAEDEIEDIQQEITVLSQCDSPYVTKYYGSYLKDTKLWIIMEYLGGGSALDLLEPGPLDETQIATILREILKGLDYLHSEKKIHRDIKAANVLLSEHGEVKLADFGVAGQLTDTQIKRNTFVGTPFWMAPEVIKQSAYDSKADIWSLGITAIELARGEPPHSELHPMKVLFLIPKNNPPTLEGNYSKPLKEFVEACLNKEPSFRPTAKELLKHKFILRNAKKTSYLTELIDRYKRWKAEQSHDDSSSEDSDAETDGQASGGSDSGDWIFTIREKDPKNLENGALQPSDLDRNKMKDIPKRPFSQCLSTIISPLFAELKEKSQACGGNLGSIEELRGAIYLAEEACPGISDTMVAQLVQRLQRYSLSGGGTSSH
For experiment [4], the target named is Serine/threonine-protein kinase pim-2 (Homo sapiens) (UniProt Q9P1W9). Put plainly: Inhibition of human recombinant PIM2 at 500 nM in presence of ATP by radiometric assay relative to control.
Serine/threonine-protein kinase pim-2 (Homo sapiens), sequence (Q9P1W9 whole entry, looked up): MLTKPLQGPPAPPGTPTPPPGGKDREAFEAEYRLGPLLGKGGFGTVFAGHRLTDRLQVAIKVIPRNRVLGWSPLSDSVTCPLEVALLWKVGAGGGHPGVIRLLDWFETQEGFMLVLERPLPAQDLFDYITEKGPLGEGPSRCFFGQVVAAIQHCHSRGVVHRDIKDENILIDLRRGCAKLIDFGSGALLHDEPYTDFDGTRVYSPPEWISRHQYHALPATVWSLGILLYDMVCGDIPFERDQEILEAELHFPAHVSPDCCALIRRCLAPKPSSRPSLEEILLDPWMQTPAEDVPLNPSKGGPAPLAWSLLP
Experiment [5] deals with Death-associated protein kinase 3 (Homo sapiens) (UniProt O43293). Nature of the experiment: Inhibition of human recombinant DAPK3 at 500 nM related to control ULK1.
Experiment [6] concerns the target Cyclin-dependent kinase-like 1 (Homo sapiens) (UniProt Q00532). Put plainly: Inhibition of human recombinant CDKL1 at 500 nM related to control ULK1.
In experiment [7] the target is T1, Serine/threonine-protein kinase Sgk3 (Homo sapiens) (UniProt Q96BR1).
T1 sequence (whole entry): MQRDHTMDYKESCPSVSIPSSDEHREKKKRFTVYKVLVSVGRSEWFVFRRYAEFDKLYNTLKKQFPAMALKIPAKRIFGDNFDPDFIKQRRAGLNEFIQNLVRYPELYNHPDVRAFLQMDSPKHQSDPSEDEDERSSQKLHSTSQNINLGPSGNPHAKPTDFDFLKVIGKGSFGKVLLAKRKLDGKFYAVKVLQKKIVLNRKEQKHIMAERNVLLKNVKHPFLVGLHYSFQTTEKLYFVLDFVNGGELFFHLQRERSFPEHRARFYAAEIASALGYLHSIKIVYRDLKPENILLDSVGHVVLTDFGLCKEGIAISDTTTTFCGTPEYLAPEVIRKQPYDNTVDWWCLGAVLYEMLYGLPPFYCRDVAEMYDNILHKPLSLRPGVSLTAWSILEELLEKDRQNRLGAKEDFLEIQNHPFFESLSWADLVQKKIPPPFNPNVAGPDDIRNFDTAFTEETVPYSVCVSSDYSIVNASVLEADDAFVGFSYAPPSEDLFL
Nature of the experiment: Inhibition of human recombinant SGK3 at 15 nM related to control ULK1.

Experiment [8] addresses T2, Serine/threonine-protein kinase PLK4 (Homo sapiens) (UniProt O00444).
T2 sequence (whole entry): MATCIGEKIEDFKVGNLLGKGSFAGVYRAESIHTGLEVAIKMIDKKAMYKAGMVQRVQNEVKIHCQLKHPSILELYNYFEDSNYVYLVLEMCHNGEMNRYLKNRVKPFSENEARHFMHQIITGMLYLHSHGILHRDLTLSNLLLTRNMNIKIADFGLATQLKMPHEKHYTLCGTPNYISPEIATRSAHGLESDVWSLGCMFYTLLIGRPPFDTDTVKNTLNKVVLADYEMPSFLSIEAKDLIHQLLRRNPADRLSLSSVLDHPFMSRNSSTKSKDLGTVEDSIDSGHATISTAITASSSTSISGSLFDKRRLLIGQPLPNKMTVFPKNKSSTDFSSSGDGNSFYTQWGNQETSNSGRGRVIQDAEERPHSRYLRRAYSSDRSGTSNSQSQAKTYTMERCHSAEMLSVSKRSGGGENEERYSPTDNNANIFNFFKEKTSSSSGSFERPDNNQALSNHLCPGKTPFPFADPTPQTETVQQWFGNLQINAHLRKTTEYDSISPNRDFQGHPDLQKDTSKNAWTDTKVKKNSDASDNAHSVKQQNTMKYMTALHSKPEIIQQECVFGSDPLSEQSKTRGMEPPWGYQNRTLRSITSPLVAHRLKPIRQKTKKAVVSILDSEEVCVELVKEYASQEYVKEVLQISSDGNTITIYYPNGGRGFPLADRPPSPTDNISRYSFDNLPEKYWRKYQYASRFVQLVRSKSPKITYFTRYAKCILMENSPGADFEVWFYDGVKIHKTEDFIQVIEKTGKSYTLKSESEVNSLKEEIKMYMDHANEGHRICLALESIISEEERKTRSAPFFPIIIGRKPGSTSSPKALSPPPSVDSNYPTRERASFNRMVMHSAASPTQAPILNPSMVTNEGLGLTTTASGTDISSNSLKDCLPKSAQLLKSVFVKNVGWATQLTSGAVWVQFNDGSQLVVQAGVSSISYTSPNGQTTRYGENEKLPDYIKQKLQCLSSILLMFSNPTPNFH
Put plainly: Inhibition of human recombinant PLK4 at 15 nM related to control ULK1.

The target in experiment [9] is Dual specificity tyrosine-phosphorylation-regulated kinase 1A (Homo sapiens) (UniProt Q13627). Put plainly: Inhibition of human recombinant DYRK1A at 15 nM related to control ULK1.
In experiment [10] the target is Glycogen synthase kinase-3 beta (Homo sapiens) (UniProt P49841). Nature of the experiment: Inhibition of human recombinant GSK3B at 15 nM in presence of ATP by radiometric assay relative to control.
Glycogen synthase kinase-3 beta (Homo sapiens), sequence (P49841 whole entry, looked up): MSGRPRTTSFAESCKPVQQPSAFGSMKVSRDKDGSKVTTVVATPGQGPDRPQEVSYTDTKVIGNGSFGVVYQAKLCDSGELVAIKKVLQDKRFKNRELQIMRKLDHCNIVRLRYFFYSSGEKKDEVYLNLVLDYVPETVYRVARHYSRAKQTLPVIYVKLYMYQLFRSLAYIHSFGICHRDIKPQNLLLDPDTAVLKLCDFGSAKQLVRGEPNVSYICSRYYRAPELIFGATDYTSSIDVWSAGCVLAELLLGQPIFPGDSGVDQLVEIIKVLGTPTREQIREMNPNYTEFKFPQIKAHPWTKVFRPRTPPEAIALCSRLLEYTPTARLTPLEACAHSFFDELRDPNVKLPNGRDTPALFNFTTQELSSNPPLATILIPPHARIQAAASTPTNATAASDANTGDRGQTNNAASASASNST
Experiment [11] concerns the target Mitogen-activated protein kinase 9 (Homo sapiens) (UniProt P45984). Put plainly: Inhibition of human recombinant JNK2 at 15 nM related to control ULK1.
Experiment [12] deals with Vascular endothelial growth factor receptor 1 (Homo sapiens) (UniProt P17948). Put plainly: Inhibition of human recombinant FLT1 at 15 nM in presence of ATP by radiometric assay relative to control.
Vascular endothelial growth factor receptor 1 (Homo sapiens), sequence (P17948 whole entry): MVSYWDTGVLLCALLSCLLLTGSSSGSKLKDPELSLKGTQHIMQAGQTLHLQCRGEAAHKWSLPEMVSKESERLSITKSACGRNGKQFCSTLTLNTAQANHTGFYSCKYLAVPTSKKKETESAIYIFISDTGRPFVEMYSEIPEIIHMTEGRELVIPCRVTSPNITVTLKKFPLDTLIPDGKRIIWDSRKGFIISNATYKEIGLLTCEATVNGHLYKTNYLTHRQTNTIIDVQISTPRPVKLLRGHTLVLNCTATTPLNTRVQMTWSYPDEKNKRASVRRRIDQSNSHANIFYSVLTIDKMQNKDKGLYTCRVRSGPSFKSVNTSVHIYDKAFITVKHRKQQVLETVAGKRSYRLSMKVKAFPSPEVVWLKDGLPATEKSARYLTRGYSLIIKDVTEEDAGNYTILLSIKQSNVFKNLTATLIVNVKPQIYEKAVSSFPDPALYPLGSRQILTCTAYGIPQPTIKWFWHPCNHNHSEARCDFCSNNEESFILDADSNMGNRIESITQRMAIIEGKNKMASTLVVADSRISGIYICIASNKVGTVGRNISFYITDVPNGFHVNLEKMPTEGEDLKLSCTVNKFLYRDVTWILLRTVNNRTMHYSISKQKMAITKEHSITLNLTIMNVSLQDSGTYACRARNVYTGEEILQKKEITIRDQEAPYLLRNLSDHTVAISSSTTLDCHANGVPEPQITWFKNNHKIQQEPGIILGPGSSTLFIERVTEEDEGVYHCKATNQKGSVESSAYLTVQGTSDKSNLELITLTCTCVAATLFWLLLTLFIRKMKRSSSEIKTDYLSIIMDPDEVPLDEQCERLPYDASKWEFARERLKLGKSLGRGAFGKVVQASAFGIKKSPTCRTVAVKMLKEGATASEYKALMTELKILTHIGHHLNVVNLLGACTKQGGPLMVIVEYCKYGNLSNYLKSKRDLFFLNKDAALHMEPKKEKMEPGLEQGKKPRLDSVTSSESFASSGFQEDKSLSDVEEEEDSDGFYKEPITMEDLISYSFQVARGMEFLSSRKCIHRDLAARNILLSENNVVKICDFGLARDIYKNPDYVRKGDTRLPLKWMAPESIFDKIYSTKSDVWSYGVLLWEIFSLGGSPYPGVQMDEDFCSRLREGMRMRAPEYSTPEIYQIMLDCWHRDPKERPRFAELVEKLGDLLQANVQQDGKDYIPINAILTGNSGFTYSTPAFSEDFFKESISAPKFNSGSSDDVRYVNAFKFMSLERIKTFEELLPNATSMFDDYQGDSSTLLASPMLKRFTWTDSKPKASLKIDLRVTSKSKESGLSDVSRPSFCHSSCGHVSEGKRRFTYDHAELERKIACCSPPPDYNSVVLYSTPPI
For experiment [13], the target named is Serine/threonine-protein kinase 35 (Homo sapiens) (UniProt Q8TDR2). Nature of the experiment: Inhibition of human recombinant CLIK1 at 15 nM in presence of ATP by radiometric assay relative to control.
Serine/threonine-protein kinase 35 (Homo sapiens), sequence (Q8TDR2 whole entry): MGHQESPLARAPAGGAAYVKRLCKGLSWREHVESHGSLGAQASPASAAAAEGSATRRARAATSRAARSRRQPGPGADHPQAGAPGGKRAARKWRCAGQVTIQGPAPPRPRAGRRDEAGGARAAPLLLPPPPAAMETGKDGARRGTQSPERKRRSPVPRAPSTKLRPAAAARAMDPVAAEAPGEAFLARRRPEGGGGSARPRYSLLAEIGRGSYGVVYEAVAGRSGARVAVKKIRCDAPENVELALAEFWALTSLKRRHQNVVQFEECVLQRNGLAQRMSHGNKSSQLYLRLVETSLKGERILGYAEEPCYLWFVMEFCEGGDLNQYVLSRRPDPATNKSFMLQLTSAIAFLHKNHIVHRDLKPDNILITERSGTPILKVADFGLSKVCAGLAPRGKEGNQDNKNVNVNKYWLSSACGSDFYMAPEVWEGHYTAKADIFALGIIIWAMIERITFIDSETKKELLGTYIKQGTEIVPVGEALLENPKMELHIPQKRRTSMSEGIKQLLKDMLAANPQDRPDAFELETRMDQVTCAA

Mitogen-activated protein kinase 9 (Homo sapiens), sequence (P45984 whole entry, looked up): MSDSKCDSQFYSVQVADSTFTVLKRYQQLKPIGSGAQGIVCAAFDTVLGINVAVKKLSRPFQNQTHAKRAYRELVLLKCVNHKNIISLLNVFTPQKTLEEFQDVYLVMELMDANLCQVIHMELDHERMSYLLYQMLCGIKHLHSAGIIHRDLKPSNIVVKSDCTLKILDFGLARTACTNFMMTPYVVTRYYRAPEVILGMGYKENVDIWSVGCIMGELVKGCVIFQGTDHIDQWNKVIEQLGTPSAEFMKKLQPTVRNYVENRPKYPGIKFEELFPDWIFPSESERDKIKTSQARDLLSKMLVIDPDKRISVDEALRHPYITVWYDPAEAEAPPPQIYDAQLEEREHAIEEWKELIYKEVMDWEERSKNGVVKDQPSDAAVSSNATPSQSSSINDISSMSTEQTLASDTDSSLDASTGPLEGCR
Cyclin-dependent kinase-like 1 (Homo sapiens), sequence (Q00532 whole entry): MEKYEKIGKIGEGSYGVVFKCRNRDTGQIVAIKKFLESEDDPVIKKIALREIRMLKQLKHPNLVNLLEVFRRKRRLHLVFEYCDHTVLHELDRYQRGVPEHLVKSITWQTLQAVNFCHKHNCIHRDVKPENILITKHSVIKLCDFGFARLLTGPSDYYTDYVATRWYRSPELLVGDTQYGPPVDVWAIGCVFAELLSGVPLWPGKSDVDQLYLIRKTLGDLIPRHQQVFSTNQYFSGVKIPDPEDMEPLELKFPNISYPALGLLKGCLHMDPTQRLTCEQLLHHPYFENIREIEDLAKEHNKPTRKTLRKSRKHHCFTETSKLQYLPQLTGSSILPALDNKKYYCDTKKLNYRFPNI
Wee1-like protein kinase (Homo sapiens), sequence (P30291 whole entry, looked up): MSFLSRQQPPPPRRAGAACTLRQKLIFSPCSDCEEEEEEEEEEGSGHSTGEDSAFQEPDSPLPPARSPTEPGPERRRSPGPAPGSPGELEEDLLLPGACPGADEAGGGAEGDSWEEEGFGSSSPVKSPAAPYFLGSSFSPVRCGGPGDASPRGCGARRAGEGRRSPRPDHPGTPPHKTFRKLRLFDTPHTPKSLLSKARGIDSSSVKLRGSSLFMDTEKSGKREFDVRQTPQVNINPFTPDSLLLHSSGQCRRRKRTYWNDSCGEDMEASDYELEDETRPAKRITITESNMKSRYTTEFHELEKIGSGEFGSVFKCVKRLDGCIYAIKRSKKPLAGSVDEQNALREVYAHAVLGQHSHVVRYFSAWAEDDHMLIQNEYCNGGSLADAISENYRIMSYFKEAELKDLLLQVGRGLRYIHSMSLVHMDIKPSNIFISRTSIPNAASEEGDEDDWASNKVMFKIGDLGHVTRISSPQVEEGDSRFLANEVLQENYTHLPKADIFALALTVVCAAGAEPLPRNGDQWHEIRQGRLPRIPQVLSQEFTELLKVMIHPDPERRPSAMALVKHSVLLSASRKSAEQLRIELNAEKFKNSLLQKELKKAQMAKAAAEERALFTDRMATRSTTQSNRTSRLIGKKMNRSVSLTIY

In the case of `O=C(N[C@@H](C1CC1)C(F)(F)F)c1cc(-c2cnn3cc(-c4ccc(F)cc4)cnc23)cs1`, the results for the fold change (FC) in [1], in experiment [2] and in experiment [3] were 0.1, 0.01 and 0.27, respectively.

Turning to `CNC(=O)c1ccccc1Oc1nc(Nc2cc(OC)c(OC)c(OC)c2)ncc1Br`, the inhibition in experiment [4] turned out to be 2%. Also, the figures for the fold change (FC) in [5] and in experiment [6] were 0.14 and 0, respectively.

For `CC(C)[C@H](NC(=O)c1cc(-c2cnn3cc(-c4ccc(OCCN5CCCCC5)cc4)cnc23)cs1)C(F)(F)F`, the fold change (FC) in experiment [7] was determined as 0.05; in [8], 0.35; in experiment [9] it was 0.83; in [11], 0. In addition, the inhibition was found to be 11% in experiment [10], 9% in [12] and 9% in experiment [13].
